pIC50: −log10 of the molar value.
Legend:
[1] = target: T1, EA-activated TRPC5 (Mus musculus, UniProt Q9QX29); experiment: FLIPR Ca2+ assay, E isomers silencing EA-activated TRPC5 (HEK293-mTRPC5-YFP); assay type: cell-based
T1 construct: expressed in transfected cells; host or cells: HEK293-mTRPC5-YFP
T1 sequence (Q9QX29 1-975): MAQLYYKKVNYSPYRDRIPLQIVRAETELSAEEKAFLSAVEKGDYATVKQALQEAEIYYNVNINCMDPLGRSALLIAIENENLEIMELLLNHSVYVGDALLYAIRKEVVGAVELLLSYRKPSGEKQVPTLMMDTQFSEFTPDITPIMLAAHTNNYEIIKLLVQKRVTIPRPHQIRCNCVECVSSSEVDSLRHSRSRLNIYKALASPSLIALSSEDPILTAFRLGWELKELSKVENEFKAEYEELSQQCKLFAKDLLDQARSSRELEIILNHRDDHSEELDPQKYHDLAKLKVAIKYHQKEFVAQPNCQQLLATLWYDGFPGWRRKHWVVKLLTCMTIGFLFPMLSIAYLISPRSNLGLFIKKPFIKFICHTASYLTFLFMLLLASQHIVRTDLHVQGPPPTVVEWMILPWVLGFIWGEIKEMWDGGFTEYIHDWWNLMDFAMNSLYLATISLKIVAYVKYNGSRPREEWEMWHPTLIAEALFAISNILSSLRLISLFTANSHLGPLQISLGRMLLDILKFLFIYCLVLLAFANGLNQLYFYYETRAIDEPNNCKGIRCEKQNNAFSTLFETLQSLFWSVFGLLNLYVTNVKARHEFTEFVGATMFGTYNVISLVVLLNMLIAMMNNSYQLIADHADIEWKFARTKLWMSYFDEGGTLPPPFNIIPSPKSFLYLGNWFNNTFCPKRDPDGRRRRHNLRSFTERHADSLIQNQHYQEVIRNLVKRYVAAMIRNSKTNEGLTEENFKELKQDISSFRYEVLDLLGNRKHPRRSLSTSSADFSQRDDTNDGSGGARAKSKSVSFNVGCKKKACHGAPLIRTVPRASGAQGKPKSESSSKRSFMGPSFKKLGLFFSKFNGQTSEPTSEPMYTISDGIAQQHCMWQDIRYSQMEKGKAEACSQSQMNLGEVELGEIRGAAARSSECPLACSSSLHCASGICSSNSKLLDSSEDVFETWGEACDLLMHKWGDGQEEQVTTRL
Description: Müller, Niemeyer, et al., Schaefer & Thorn-Seshold 2025: Ideal Efficacy Photoswitching of TRPC4/5 in Tissue but it can justify why the affinity of the E/Z-isomers may be similar.
(2) The EC50 values are reported as the midpoints of unconstrained sigmoidal fits to the FLIPR data (Fig 1l and Supplementary Fig. 2): with different levels of channel activation / blocking and very different Hill slopes across different compounds, isomers, and the two channels. This argues that the midpoint values only capture one of the several important factors describing the […]
We believe that it is possible to derive indicative relative values for binding affinity comparing the E and Z isomers of the same compound using only the combination of FLIPR and ephys data as reported in this paper; this analysis is being developed in a separate paper (see also below).
Supplementary Table 1. Potencies on TRPC4/5 depicted as either simple agonistic potency (blue) or else inhibitory […]
. Z*-values refer to mostly-Z-isomer reached at PSS at 365 nm, E*-values refer to experiments that initially applied 100% E-isomer (thermally relaxed), though in both cases the Ca2+ imaging in FLIPR with Fluo4-AM uses 470 nm excitation, which may over time promote photoswitching towards a PSS that is intermediate between those of pure-365 nm and all-E; this is controlled for in the more reliable ephys measurements). (Table indices: a, data from ref7; b, data from ref2; c, data from ref3; d, data from ref8.) EC50 [nM] (for simple agonism or EA-competitive inhibition)
E-AzPico 90 (vs 30 nM EA) 67 (vs 30 nM EA) […]
orange: inhibitory effect ag.: agonistic effect
1.1.1 From always-active antagonists and agonists towards efficacy photoswitches […]
photoisomerising an azobenzene that is merged in at the C’4 position yielding the compounds […]
inhibitory effect for the E-isomers (Supplementary Table 1). Essentially, the effects of Pico145 and AM237 are latent within a single (two-state reversibly photoswitchable) molecule. This combination is what we call an efficacy switch (also see main text Fig. 1e-j).
1.1.2 Mechanistic test for efficacy photoswitching […]
deliver (Fig. 1-2) is a powerful support for an efficacy switch interpretation. To indirectly support this further, we also measured the effects of E-AzPico and E-AzHC against EA-activated TRPC4/5.
Both E-isomers bind to TRPC4/5 and inhibit EA-evoked currents with nanomolar potencies (Supplementary Fig. 2, Supplementary Table 2). This supports the hypothesis that E- […]
to be an EA-competitive binder5,9,10), so their efficacy as single agent photoswitches results from E/Z-competitive binding that is determined by their PSS. […]
Supplementary Table 2. […] (a Inhibitory effect measured against 30 nM EA; b Inhibitory effect measured against 50 nM EA). […]

[2] = system: TRPC5; details: ag. = agonistic effect; read-out: EC50 [nM] simple agonism, TRPC5; cited from earlier work

pIC50 ([1]; Inhibitory IC50 (versus 30 nM EA) TRPC5, E isomer, thermally relaxed, 30 nM EA) | pIC50 ([1]; Inhibitory IC50 (versus 50 nM EA) TRPC5, E isomer, 50 nM EA) | SMILES | EC50 [2] [nM]
7.17 | 7.16 | Cn1c(=O)n(CCCO)c(=O)c2c1nc(Oc1ccc(/N=N/c3ccccc3)c(OC(F)(F)F)c1)n2Cc1ccc(Cl)cc1 [E-AzPico] | 
 |  | Cn1c(=O)n(CCCO)c(=O)c2c1nc(Oc1ccc(Cl)c(OC(F)(F)F)c1)n2Cc1ccc(Cl)cc1 [AM237, reference compound] | 20

Reference: PMC12858405, “Ideal efficacy photoswitching for chromocontrol of TRPC4/5 channel functions in live tissues” (Nature Chemical Biology, 2026)
